# Test results taken from patent US20080095737A1, “NON-TOXIC COATING COMPOSITION, METHODS OF USE THEREOF AND ARTICLES PROTECTED FROM ATTACHMENT OF BIOFOULING ORGANISMS” (Symrise GmbH & Co. KG, priority 2000, published 2008).
# Where “and” joins values, the source holds several entries; their conditions need not be identical. Equal values may be shown once. Read-outs that look alike come from different tables or passages of the source.
# Assays:
# [1] = test system: cyprid larvae of the barnacle, Balanus amphitrite Darwin; test: Barnacle settlement inhibition assay; type: in vivo; conditions: for EC50: Amphibalanus amphitrite, read-out: EC50 (concentration which inhibited the settlement of 50% of the cyprid stage larvae); for efficacy as antifouling agents: in words
# Text: Mary's College in Tuticorin, India. The barnacles were crushed and the nauplius stage larvae were collected for culture to the cyprid stage following the method of Rittschof et al., J. Exp. Mar. Biol. Ecol., 82:131146 (1984). The cyprid is the stage at which the barnacle larva is competent to attach to surfaces. Upon attachment to a surface, the larva then undergoes metamorphosis into a barnacle. Barnacle settlement assays were undertaken using the method described previously by Rittschof et al., J. Chem. […] Briefly, Falcon 50×9 mm plastic petri dishes were filled with 5 ml of filtered seawater at salinity of 33-35 parts per thousand (ppt) and into which 3-day old cyprid stage larvae were added. The test compounds were introduced at various concentrations into the dishes containing seawater. The test compounds included (-)menthol and (-)[…]-3,8-diol. Controls were represented by those dishes in which no test compound were added. After incubation at 28° C. for 9 hours, the dishes were examined under a dissecting microscope to determine if there was any mortality. […] Settlement data were expressed as the percentage of the larvae attached to the bottom of the dish. The same settlement assay was used to determine the effective concentration of a number of different compounds of formula I, above. The effective concentration (EC50) is that concentration which inhibited the settlement of fifty percent (50%) of the cyprid stage of the barnacle larvae present in a test sample.
# [2] = test system: Nitzchia sp.; test: In vitro cell growth inhibition assay, Nitzchia sp; type: cell-based; conditions: 0.00001-1.0 mg/ml, compared to the control
# Description: (§1) The in vitro cell growth inhibition assay used in this test is described in […], et al., J. Chem. Ecol., supra. Dunaliella tertiolecta is a marine micro algae cultured in the laboratory. Each test algae was inoculated from stock culture into flasks containing growth medium. (-)-menthol was added to the flask at various concentrations and the growth was monitored on each flask using a haemocytometer at 24-hour intervals up to the death phase of the culture. The test procedure employed was substantially the same as described in Example 4, except that Nitzchia sp. was substituted for D. tertiolecta.
# [3] = test system: other bacterial strains associated with Perna sp; test: Agar diffusion assay, marine bacteria associated with Perna sp; conditions: procedure as Example 2
# [4] = test system: fouling phytoplanktons; test: Attachment of fouling phytoplanktons on painted submerged cement structures (seawater raceway); parameters: key: +++++: highest amount of fouling attachments; −: no appreciable fouling attachments; conditions: 5% by weight in paint on cement structure, 60 days in seawater raceway
# Description: A raceway measuring 100 feet long, 15 feet wide and 3 feet deep was constructed near the sea and lined with a plastic liner. Seawater was pumped directly from the sea and the Growth of naturally occurring plankton was induced by fertilization of the seawater. The total volume of the seawater was approximately 150 cubic meters. The water was circulated and aerated using a paddlewheel. Samples of the seawater were analyzed after 30 days and found to contain the following species of diatoms: Grammatophoria ocean ica, Nitzschia sp., A,inphora sp., Amphora bigilba, Thalassiothrix sp., Stauroneis sp., Licniophora sp., and Navicula sp. The seawater also contained the dinoflagellate, Peridhan sp., and the blue Green algae, Ocillatoria sp. and Rivularia sp.
# A conventional paint formulation that was free of any tributyl tin compounds was used as a control. Paint formulations embodying the present invention were prepared by incorporating (−)-menthol and (−)-(trans)-p-menthan-3,8-diol at a dose concentration of 5 percent (5%) by weight of each compound into the same paint vehicle used for the control formulation, and these two formulations were painted on separate surfaces of cement structures placed in the raceway. The controls consisted of unpainted cement surface and surface painted with the control formulation. […]
# [5] = test system: Dunaliella tertiolecta; test: In vitro cell growth inhibition assay, marine unicellular algae; type: cell-based; conditions: 0.00001-1.0 mg/ml, cell counts at 24-hour intervals
# Description: as §1, with “culture.” for “culture. The test procedure employed was substantially the same as described in Example 4, except that Nitzchia sp. was substituted for D. tertiolecta.”
# [6] = test system: barnacle, Balanus amphitrite communis; test: Painted iron panels submerged in the sea, barnacle attachment; conditions: cuprous oxide-containing marine paint on iron panels, submerged 78 weeks; control paint = 100
# Description: A floating platform was constructed using layers of bamboo and styrofoam floats. The platform was designed with holders to accommodate test panels measuring 4 inches×12 inches×0.25 inches.
# A first experimental paint was prepared, containing a biocidally effective amount of cuprous oxide and no other biocide which was used as the control. To this composition was added a combination of 0.5%, by weight of (−)-trans-pmenthan-3,8-diol and 0.50 of (−)-menthol (Composition A). A second paint composition was prepared from the same marine paint vehicle containing cuprous oxide, to which was added 2% by weight of (−)-menthol (Composition B). A third formulation was made from the same cuprous oxide-containing marine paint vehicle, to which was added 2% by weight of (−)-trans-p-menthan-3,8-diol (Composition C).
# Solid iron panels having the above-mentioned dimensions were painted with the paint formulations thus prepared, placed in the holders in the floating platform and submerged continuously near the center of Bitac Cove in San Dionisio Bay (Philippines) for a period of 78 weeks. The panels were examined for a few minutes every three months and immediately resubmerged after photography. After 78 weeks, the panels were removed and inspected. The numbers of barnacles attached to the panels were counted. […]
# [7] = test system: Aeromonas sp. (Ael); test: Agar diffusion assay, marine bacteria associated with B. amphitrite; type: cell-based; conditions: 0.004 mg/ml loaded on 6.5 mm disks
# [8] = test system: Flavobacterium sp. (F); test: as above; type: cell-based; conditions: 0.004 mg/ml loaded on 6.5 mm disks
# [9] = test system: nauplii of the barnacle, Balauus annphitrite Darwin; test: Mortality of barnacle nauplii at the effective concentrations; conditions: prolonged exposure at the compound's EC50 concentration
# [10] = test system: Vibrio sp. (V, & V,); test: Agar diffusion assay, marine bacteria associated with Perna sp; type: cell-based; conditions: procedure as Example 2
# [11] = test system: other bacterial strains associated with B. amphitrite; test: Agar diffusion assay, marine bacteria associated with B. amphitrite; type: cell-based; conditions: 0.004 mg/ml loaded on 6.5 mm disks
# [12] = test system: barnacle, Balanus amphitrite Darwin; conditions: cited from earlier work
# [13] = settlement assay, cyprid larvae
smiles,measurement,setting,value
"C=C(C)C1CCC(C)CC1O (single isomer, unassigned; (-)) [(−)-isopulegol, 5-methyl-2-(1-methylethenyl)cyclohexanol]",EC50,[1]; [13],0.088 µg/mL
same,efficacy as antifouling agents,[1]; settlement assay,superior efficacy
"CC1CCC(C(C)C)C(O)C1 (single isomer, unassigned; (-)) [(−)-menthol]",inhibition of growth rate,[2],effective at all of the concentrations tested in inhibiting the growth rate
same,sensitivity of bacterial strains,[3],moderately sensitive
same,DEGREE OF BIOFOULING,[4],−
same,inhibition of growth,[5],effective in inhibiting the growth of this micro algae in a dose dependent manner
same,% Settlement,[6],16.1%
same,"zone of inhibition, radius",[7],greater than 10 mm
same,"zone of inhibition, radius",[8],greater than 10 mm
same,EC50,[1],4 µg/mL
same,settlement (percentage of the larvae attached to the bottom of the dish),"[1]; each of five concentrations tested (concentrations not given), in order, last = highest, 9 hours at 28° C., control 59% (diol) / 58% (menthol)",39% and 34% and 26% and 23% and 21%
same,mortality of barnacle nauplii,[9],did not show any mortality
same,"zone of inhibition, radius",[10],greater than 8.5 mm
same,sensitivity of bacterial strains,[11],moderately sensitive
"CC1CCC(C(C)C)C(=O)C1 (single isomer, unassigned; (-)) [(−)-menthone]",EC50,[1],1 µg/mL
same,mortality of barnacle nauplii,[9],did not show any mortality
"CC1CCC(C(C)C)C(Cl)C1 (single isomer, unassigned; (-)) [(−)-menthyl chloride]",EC50,[1],0.1 µg/mL
same,mortality of barnacle nauplii,[9],did not show any mortality
"CC1CCC(C(C)(C)O)C(O)C1 (single isomer, unassigned; (-)) [(−)-trans-p-menthan-3,8-diol]",DEGREE OF BIOFOULING,[4],−
same,% Settlement,[6],27.1%
same,EC50,[1],1 µg/mL
same,mortality of barnacle nauplii,[9],did not show any mortality
CCC[CH2][Sn]([Cl])([CH2]CCC)[CH2]CCC [TBT chloride],"acute toxicity, estimated dose",[12],~3.4 μg (microgram) per liter
same,"acute toxicity, estimated dose",[12]; same value restated,~0.0000034 grams/liter
"CC1CCC(C(C)C)C(OCC(O)CO)C1 (centres unmarked) [menthoxypropanediol, 3-[[5-methyl-2-(1-methylethyl)cyclohexyl]oxy]-1,2-propanediol]",EC50,[1]; [13],0.002 µg/mL
same,efficacy as antifouling agents,[1]; settlement assay,superior efficacy
